{"source": "paper PMC4845953", "about": "(Journal of materials chemistry. B, Materials for biology …, 2016)", "key": {"HeLa cells": {"tested_on": "HeLa cells", "conditions": "48 h"}, "proteinase K": {"target": "proteinase K (Parengyodontium album, UniProt P06873)", "sequence (P06873 106-384)": "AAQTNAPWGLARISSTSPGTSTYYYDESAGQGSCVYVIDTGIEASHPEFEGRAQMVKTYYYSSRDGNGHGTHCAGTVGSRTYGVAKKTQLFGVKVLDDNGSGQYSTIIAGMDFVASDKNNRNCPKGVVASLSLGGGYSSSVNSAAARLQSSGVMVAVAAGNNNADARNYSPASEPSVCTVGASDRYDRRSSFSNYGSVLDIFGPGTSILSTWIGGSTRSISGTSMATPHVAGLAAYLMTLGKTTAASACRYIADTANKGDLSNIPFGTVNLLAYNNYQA"}, "[1]": {"type": "physicochemical", "conditions": "pH 7.4"}, "[2]": {"type": "physicochemical", "conditions": "pH 7.4", "remark": "listed apart in the source"}, "[3]": {"type": "physicochemical", "conditions": "pH 7.4", "remark": "listed apart in the source"}}, "note": "Non-standard residues stand in square brackets, D forms with d. Residues, ends and D or L forms follow the SMILES beside them. *: point of attachment. d(pY) = N[C@H](Cc1ccc(OP(=O)(O)O)cc1)C(=O)O; Acetyl(2-naphthyl) = O=C(Cc1ccc2ccccc2c1)*; pY = N[C@@H](Cc1ccc(OP(=O)(O)O)cc1)C(=O)O"}
{"smiles": "NC(=O)CC[C@@H](NC(=O)[C@@H](CCC(N)=O)NC(=O)[C@@H](CC(N)=O)NC(=O)[C@@H](CC(N)=O)NC(=O)CNC(=O)[C@@H](Cc1ccccc1)NC(=O)[C@@H](Cc1ccccc1)NC(=O)Cc1ccc2ccccc2c1)C(=O)N[C@H](CC(N)=O)C(=O)N[C@H](Cc1ccc(OP(=O)(O)O)cc1)C(=O)O", "note": "[Precursor D-3P, N’ffgnnqqnyp] ({Acetyl(2-naphthyl)}-[dF][dF]G[dN][dN][dQ][dQ][dN][d(pY)]-OH)", "values": [{"measurement": "IC50", "setting": "HeLa cells", "result": "> 500", "unit": "µM"}, {"measurement": "proteolytic stability towards proteinase K", "setting": "proteinase K", "result": "high resistance"}]}
{"smiles": "NC(=O)CC[C@H](NC(=O)[C@H](CCC(N)=O)NC(=O)[C@H](CC(N)=O)NC(=O)[C@H](CC(N)=O)NC(=O)CNC(=O)[C@H](Cc1ccccc1)NC(=O)[C@H](Cc1ccccc1)NC(=O)Cc1ccc2ccccc2c1)C(=O)N[C@@H](CC(N)=O)C(=O)N[C@@H](Cc1ccc(OP(=O)(O)O)cc1)C(=O)O", "note": "[Precursor L-3P, N’FFGNNQQNYp] ({Acetyl(2-naphthyl)}-FFGNNQQN[pY]-OH)", "values": [{"measurement": "ALP gel: TEM fiber width", "setting": "[1]", "result": "8 ± 2", "unit": "nm"}, {"measurement": "IC50", "setting": "HeLa cells", "result": "476 ± 21.4", "unit": "µM"}, {"measurement": "time to hydrogel after addition of ALP", "setting": "[2]", "result": 10, "unit": "min"}, {"measurement": "proteolytic stability towards proteinase K", "setting": "proteinase K", "result": "almost completely degrade"}, {"measurement": "ALP gel: dynamic strain sweep, Max. G′", "setting": "[3]", "result": 32.8, "unit": "Pa"}, {"measurement": "ALP gel: dynamic strain sweep, critical strains", "setting": "[3]", "result": 13.2, "unit": "%"}]}
{"smiles": "NC(=O)CC[C@H](NC(=O)[C@H](CCC(N)=O)NC(=O)[C@H](CC(N)=O)NC(=O)[C@H](CC(N)=O)NC(=O)CNC(=O)[C@H](Cc1ccccc1)NC(=O)[C@H](Cc1ccccc1)NC(=O)Cc1ccc2ccccc2c1)C(=O)N[C@@H](CC(N)=O)C(=O)N[C@@H](Cc1ccc(O)cc1)C(=O)O", "note": "[Precursor L-3] ({Acetyl(2-naphthyl)}-FFGNNQQNY-OH)", "values": [{"measurement": "ALP gel: TEM fiber width", "setting": "[1]", "result": "about 8 ± 2 nm"}, {"measurement": "ALP gel: dynamic strain sweep, Max. G′", "setting": "[3]", "result": 33, "unit": "Pa"}, {"measurement": "ALP gel: dynamic strain sweep, critical strains", "setting": "[3]", "result": 13.2, "unit": "%"}]}
{"smiles": "NC(=O)CC[C@@H](NC(=O)[C@@H](CCC(N)=O)NC(=O)[C@@H](CC(N)=O)NC(=O)[C@@H](CC(N)=O)NC(=O)CNC(=O)[C@@H](Cc1ccccc1)NC(=O)[C@@H](Cc1ccccc1)NC(=O)Cc1ccc2ccccc2c1)C(=O)N[C@H](CC(N)=O)C(=O)N[C@H](Cc1ccc(O)cc1)C(=O)O", "note": "[Precursor D-3] ({Acetyl(2-naphthyl)}-[dF][dF]G[dN][dN][dQ][dQ][dN][dY]-OH)", "values": [{"measurement": "ALP gel: dynamic strain sweep, Max. G′", "setting": "[3]", "result": 132, "unit": "Pa"}, {"measurement": "ALP gel: dynamic strain sweep, critical strains", "setting": "[3]", "result": 7.0, "unit": "%"}]}
